From patent US20240091242A1, “LIPIDS THAT REDUCE LUNG DAMAGE, IMPROVE PULMONARY FUNCTION AND DECREASE PRO-INFLAMMATORY CYTOKINES” (Signpath Pharma, Inc., priority 2021, published 2024) come the findings set out here.

SMILES strings stand for the structures.

Type in all cases: in vivo, mouse
The test system of experiment [1] is murine LPS ARDS model. The experiment can be described thus: Arterial blood oxygen saturation (SpO2), murine LPS ARDS model. The note with it: 72-hour study; compared to untreated LPS group; did not reach statistical significance. As for the experimental part:
(§1) In the ARDS group, mice received Escherichia coli O111:B4 lipopolysaccharide (50 μg in 0.05 mL saline, i.t.), while, in the control group, the animals received an instillation of saline (0.05 mL, i.t.). For intratracheal instillation, mice were slightly anesthetized with isoflurane.
The lipid SPPCT-800 was dissolved in water (low dose—2 mg/ml; high dose—20 mg/ml). For the 24-hour study, two treatment approaches were used. Mice received a single dose of SPPCT-800 (200 mg/kg, per gavage) as prevention (30 minutes before the LPS instillation), or as a single dose of either 20 mg/kg or 200 mg/kg as therapy (3-hour after the LPS instillation). For the 72-hour study, mice received a total of 8 treatments of SPPCT-800 (200 mg/kg) starting at 3-hour after the LPS instillation. Disease progression in mice was assessed by the evaluation of pulmonary functions, blood oxygen saturation, and body weight change. […]
At 0 hour (baseline), 24-hour post-LPS instillation, and 48 and 72-hour post LPS instillation, arterial blood oxygen saturation (SpO2) was recorded on conscious mice. SpO2 was read off of a pulse oximeter (STARR Life Sciences MouseOx Plus system, Oakmont, PA) with a mouse collar probe installed at the carotid level. The saturation values were measured in percentages (%).
(§2) Statistical Analysis. Results are expressed as means±SEM. […]

Experiment [2] concerns murine LPS ARDS model. The experiment is described as follows: Histopathological evaluation (lung injury score), murine LPS ARDS model. On the procedure: as §1
(§3) The lipid SPPCT-800 was dissolved in water (low dose—2 mg/ml; high dose—20 mg/ml). For the 24-hour study, two treatment approaches were used. Mice received a single dose of SPPCT-800 (200 mg/kg, per gavage) as prevention (30 minutes before the LPS instillation), or as a single dose of either 20 mg/kg or 200 mg/kg as therapy (3-hour after the LPS instillation). For the 72-hour study, mice received a total of 8 treatments of SPPCT-800 (200 mg/kg) starting at 3-hour after the LPS instillation. Disease progression in mice was assessed by the evaluation of pulmonary functions, blood oxygen saturation, and body weight change. On the terminal day of each study (24 hours or 72 hours), measurement of cytokine levels in the plasma and BALF, and histopathology evaluations were done.
Histopathological Evaluation. […] A blinded histologist evaluated the general morphology of alveolar septa, lung structure, and inflammation according to the general scoring described and adopted by Matute-Bello, et al.^25, 26
as §2

Experiment [3] relates to murine LPS ARDS model. The experiment is described as follows: BALF protein content and cell counts, murine LPS ARDS model. On the procedure:
as §1, §3
Differential Cell Counts in BALF. The left lung was clamped while 0.9 mL of cold PBS 1×, Protease Inhibitor 1× (SigmaFast®) solution (3×300 μL) was injected so bronchoalveolar lavage fluid (BALF) from the right lobe of the lungs could be collected. The protein assay was performed according to the manufacturer's instruction BCA Protein Assay (Pierce™-#23227). Briefly, a dilution factor of 5 was used (1 part of BALF: 4 part of PBS 1×). 10 μL, of the diluted sample was added into the microplate wells. 200 μL of the working reagent was added into each well. The plate was covered, incubated at 37° C. for 30 minutes. After a cool-down period, the absorbance at 562 nm was rapidly measured using a monochromatic spectrophotometer (SpectraMAX ® plus—Molecular Devices). The total BALF protein content was reported by multiplying the protein concentration by the dilution factor, and then multiplying by the total of BALF volume collected.
(§4) Statistical Analysis. Results are expressed as means±SEM. Comparisons were made on normally distributed data using ANOVA, followed by a Fisher post hoc test to assess the difference between LPS+vehicle group with GraphPad Prism Software version 8.0 (San Diego, CA, USA). Differences were considered statistically significant when P values were less than 0.05. (* Shown difference versus Sham animals and # shown difference versus LPS+Vehicle group. * Means P<0.05, ** P<0.01, *** P<0.001 while # means P<0.05, ##P<0.01 and ###P<0.001).

Experiment [4] relates to murine LPS ARDS model. The experiment is described as follows: Respiratory functions by whole-body plethysmograph, murine LPS ARDS model. The conditions noted are these: P<0.001. As for the experimental part: as §1, §3
Respiratory Functions. All mice were introduced to the plethysmograph chamber environment. After the acclimatization period, the functional respiratory parameters were assessed by the whole-body plethysmograph (VivoFlow, SCIREQ, Montreal, Canada) at 0 hour (baseline), at 24-hour post-LPS instillation, and at 48 and 72-hour post-LPS instillation. Each measurement was performed with the mouse placed alone in an unrestrained whole-body plethysmography (WBP) chamber to measure respiratory functions. The WBP trace allowed us to determine specific information regarding the breathing pattern, and to derive important information associated with the development of inflammation. The functional respiratory parameters analyzed included respiratory rate, PenH (pulmonary congestion index), and inspiratory/expiratory time measurements. PenH, was used as an index of edema, inflammation and congestion (broncho-restriction).^24
as §4

With `CCCCCCCCCCCCCC(=O)OCC(COP(=O)([O-])OCC(COC(=O)CCC)OC(=O)CCC)OC(=O)CCCCCCCCCCCCC.CCCCCCCCCCCCCC(=O)OCC(COP(=O)([O-])OCC(COC(=O)CCC)OC(=O)CCC)OC(=O)CCCCCCCCCCCCC.[Mg+2]` (centres unmarked) [SPPCT-800], the SpO2 levels entry in experiment [1] is “maintained”. Besides, the lung injury score in experiment [2] (at 24 hours, given 30 minutes prior to LPS as a preventative, P<0.01) worked out at 0.3; in experiment [2] (at 72 hours, multi-dose treatment group), 2.2. Moreover, the BALF protein content entry in experiment [3] (24 hours after LPS, single dose given as a preventive, P<0.05) was “significant reduction”. Also, in experiment [3] (at 72 hours, multidose treatment), the BALF protein levels result was “major reductions”. For the same compound, in experiment [3] (at 72 hours, multidose treatment, P=0.1493, not statistically significant), the BALF neutrophil counts result is “reductions”. Moreover, the “BALF total cell count” value in experiment [3] (at 72 hours, multidose treatment, P=0.1714, not statistically significant) was “reductions”. The inspiratory time entry in experiment [4] (at 24 hours) is on record as “Significant reductions”. For the same compound, the “pulmonary congestion index (PenH)” value in experiment [4] (at 24 hours) is on record as “Significant reductions”; in experiment [4] (at 48 hours), “significant reductions”. The expiratory time result in experiment [4] (at 48 hours) was “significant reductions”.
